Experimental data published in patent publication US20240140986A1, “SYNTHETIC URSOLIC ACID DERIVATIVES AND METHODS OF USE THEREOF” (REATA PHARMACEUTICALS, INC., priority 2021, published 2024).
Like-named read-outs stand apart in the source and are kept apart here.

Tests used:
[1] = system: IFNγ-induced NO production in RAW 264.7 cells; assay: Nitric Oxide Suppression Assay (IFNγ-induced NO, Griess nitrite readout); assay type: cell-based, mouse; conditions: for IC50: Mus musculus; for Avg NO IC50 Relative to RTA402 (fold): Table 2, ratio to RTA402
Method: Tissue Culture: RAW 264.7, a mouse macrophage cell line, was obtained from American Type Culture Collection (Manassas VA) and maintained in the log phase of growth in Roswell Park Memorial Institute Medium 1640 (RPMI 1640) supplemented with 10% heat inactivated fetal bovine serum and 1% penicillin-streptomycin. Cells were cultured and maintained in a humidified incubator at 37° C. under 5% C02. Cells were sub-cultured every 2-4 days. All cell culture supplies were obtained from Life Technologies (Grand Island, NY) and VWR (Radnor, PA).
Nitric Oxide Suppression Assay. RAW 264.7 cells were plated 1 day in advance of experimental treatments at a concentration of 30,000 cells per well onto Falcon-96 well clear bottom plates (Corning, NY) in a total volume of 200 μL per well using RPMI 1640 supplemented with 0.5% fetal bovine serum and 1% penicillin-streptomycin. The next day, cells were pretreated with compounds serially diluted from 1000×stocks. All compounds were dissolved in dimethyl sulfoxide (DMSO) usually at 10 mM stock solutions. Compounds were subsequently diluted in DMSO and RPMI 1640. Each well received a final concentration of 0.1% DMSO. Cells were pretreated for 2 hours and incubation at 37° C., followed by treatment with 20 ng/mL of interferon gamma (R&D Systems, Minneapolis, MN) per well for 24 hours. The next day, a nitrite standard was serially diluted from 100 μM to 1.6 μM in RPMI 1640. Afterwards, 50 μL of cell culture supernatant was transferred from each well into a new Falcon-96 well clear bottom plate. Nitrite was measured as surrogate for nitric oxide using Promega's Griess Detection Kit #G2930 (Madison, WI) which involves the addition of 50 μL of the provided sulfanilamide solution to each well of the transferred cell culture supernatant and standards, followed by a 10-minute incubation at room temperature. Next, 50 μL of the provided N-1-napthylethylenediamine dihydrochloride (NED) solution was added to the sulfanilamide reaction and incubated for 10 minutes at room temperature in the dark. Afterwards, air bubbles were removed using ethanol vapor and absorbance was measured using a Spectramax M2e plate reader with a wavelength set to 525 nm. Viability was assessed using WST-1 cell proliferation reagent from Roche (Basel, Switzerland). After media was removed for the Nitric Oxide suppression assay, 15 μL of WST-1 reagent was added to each well of cells. Plates were briefly mixed on an orbital shaker and the cells were incubated at 37° C. for 30-90 minutes. Absorbance was measured using a Spectramax M2e plate reader with wavelengths set to 440 nm and 700 nm.
For the ability of compounds to suppress the increase in nitric oxide release caused by interferon gamma, the absolute amount of nitrite that was produced in each well was extrapolated from the nitrite standards using a linear regression fit. All values were then normalized to the DMSO-interferon gamma treated wells and plotted as percent nitric oxide. IC50 values were calculated using Excel and/or GraphPad Prism (San Diego, CA).

[2] = system: Nrf2 / ARE-dependent luciferase in AREc32 reporter cell line; assay: AREc32 luciferase reporter activation (Nrf2 induction); assay type: cell-based, human; conditions: for EC (2-fold): Homo sapiens, Arec32; for Relative Avg AREc32 EC2X Relative to RTA402 (fold): ratio to RTA402
Method: Effect on Ludferase Reporter Activation. Nrf2 is a transcription factor that binds to the antioxidant response element (ARE) sequence in the promoter regions of its target genes. AREc32 reporter cell line (derived from human breast carcinoma MCF7 cells) was obtained was from CXR Bioscience Limited (Dundee, UK) and cultured in DMEM (low glucose) supplemented with 10% FBS, 1% penicillin/streptomycin, and 0.8 mg/ml Geneticin (G418). This cell line is stably transfected with a luciferase reporter gene under the transcriptional control of eight copies of the rat GSTA2 ARE sequence (5′-GTGACAAAGCA-3′) (Wang et al., 2006). Expression of Firefly luciferase from this reporter plasmid is controlled by binding of Nrf2 to these ARE sequences. Measurement of ARE-dependent luciferase activity allows quantitative assessment of Nrf2 induction. AREc32 cell line has previously been used in studies characterizing different Nrf2 activators (Dinkova-Kostova & Wang, 2011; Roubalová et al., 2016; Roubalová et al, 2017; Wu et al, 2012).
The effect of several compounds disclosed herein on luciferase reporter activation was assessed in the AREc32 reporter cell line (see Table 10 and Table 11). This cell line is derived from human breast carcinoma MCF-7 cells and is stably transfected with a luciferase reporter gene under the transcriptional control of eight copies of the antioxidant response element from the rat Gsta2 gene, an Nrf2 target gene (Frilling et al., 1990). AREc32 cells were plated in black 96-well plates in 200 μL media at 20,000 cells per well. Twenty-four hours after plating, cells were treated with vehicle (DMSO) or test compounds at concentrations ranging from 0.03 to 1000 nM for nineteen hours. Media was removed and 100 μL of 1:1 mixture of the One-Glo Luciferase assay reagent and culture medium was added to each well. After incubation for 5 min at room temperature, the luminescence signal was measured on a PHERAstar plate reader. The EC2X value was determined using Excel and GraphPad Prism software. The fold increase in luminescence signal for cells treated with each concentration of compound relative to cells treated with vehicle was determined and a dose-response curve was generated. The dose-response curve was fit using nonlinear regression analysis and used to extrapolate the EC2X value. The EC2X value is defined as the concentration of test compound required to increase the luminescence signal 2-fold above levels in vehicle-treated samples.

[3] = RAW264.7, Table 2, RAW 264.7 cells, 2 h pretreatment, 20 ng/mL interferon gamma 24 h, read-out: Avg NO IC50 (nM) (Mean ± SD)
[4] = Table 2, concentration increasing luminescence 2-fold above vehicle, 19 h treatment, read-out: Avg AREc32 EC2X (nM) (Mean ± SD)
[5] = RAW264.7, Table 3, ursolic acid derivatives, read-out: Avg NO IC50 (nM) (Mean ± SD)
[6] = Table 3, ursolic acid derivatives, read-out: Avg ARE EC-2X (nM) (Mean ± SD)
[7] = RAW264.7, Table 3, oleanolic acid derivative analogs, read-out: Avg NO IC50
[8] = Table 3, oleanolic acid derivative analogs, read-out: Avg ARE EC-2X

Structure (SMILES)	IC50 [1, 3] [nM]	Avg NO IC50 Relative to RTA402 (fold) [1] [fold]	EC (2-fold) [2, 4] [nM]	Relative Avg AREc32 EC2X Relative to RTA402 (fold) ([2]; Table 2)	IC50 [1, 5] [nM]	EC (2-fold) [2, 6] [nM]	IC50 [1, 7] [nM]	EC (2-fold) [2, 8] [nM]
CC(=O)OCCNC[C@]12CC[C@@H](C)[C@H](C)[C@H]1[C@H]1C(=O)C=C3[C@@]4(C)C=C(C#N)C(=O)C(C)(C)[C@@H]4CC[C@@]3(C)[C@]1(C)CC2 [Compound T43]	15.9 ± 7	5.93 ± 3.56	10.1 ± 1	0.8 ± 0.1	–	–	–	–
Cc1nnc([C@]23CC[C@@H](C)[C@H](C)[C@H]2[C@H]2C(=O)C=C4[C@@]5(C)C=C(C#N)C(=O)C(C)(C)[C@@H]5CC[C@@]4(C)[C@]2(C)CC3)o1 [Compound T69]	16.9 ± 5	4.94 ± 1.27	8.08 ± 1.98	0.673 ± 0.139	16.9 ± 5	8.08 ± 1.98	–	–
C[C@@H]1[C@H]2[C@H]3C(=O)C=C4[C@@]5(C)C=C(C#N)C(=O)C(C)(C)[C@@H]5CC[C@@]4(C)[C@]3(C)CC[C@@]2(C(=O)NCC(F)F)CC[C@H]1C [Compound T87]	26.1 ± 7.6	6.55 ± 2.23	23.6 ± 0.9	2.0 ± 0.1	–	–	–	–
C[C@@H]1[C@H]2[C@H]3C(=O)C=C4[C@@]5(C)C=C(C#N)C(=O)C(C)(C)[C@@H]5CC[C@@]4(C)[C@]3(C)CC[C@@]2(CNC(=O)C2CCC2)CC[C@H]1C [Compound T25]	5.11 ± 1.69	1.49 ± 0.35	2.88 ± 0.13	0.259 ± 0.036	–	–	–	–
[2H]C([2H])([2H])C(=O)N(C)C[C@]12CC[C@@H](C)[C@H](C)[C@H]1[C@H]1C(=O)C=C3[C@@]4(C)C=C(C#N)C(=O)C(C)(C)[C@@H]4CC[C@@]3(C)[C@]1(C)CC2 [Compound T37]	5.76 ± 1.38	2.08 ± 0.31	6.04 ± 2.15	0.486 ± 0.047	–	–	–	–
CC1(C)CC[C@]2(CN3CCC3=O)CC[C@]3(C)[C@H](C(=O)C=C4[C@@]5(C)C=C(C#N)C(=O)C(C)(C)[C@@H]5CC[C@]43C)[C@@H]2C1 [CC14, reference compound]	–	–	–	–	–	–	1.1	5.24
CC1(C)CC[C@]2(Cn3ccnn3)CC[C@]3(C)[C@H](C(=O)C=C4[C@@]5(C)C=C(C#N)C(=O)C(C)(C)[C@@H]5CC[C@]43C)[C@@H]2C1 [CC50, reference compound]	–	–	–	–	–	–	1.1	9.57
CNC(=O)N(C)C[C@]12CC[C@@H](C)[C@H](C)[C@H]1[C@H]1C(=O)C=C3[C@@]4(C)C=C(C#N)C(=O)C(C)(C)[C@@H]4CC[C@@]3(C)[C@]1(C)CC2 [Compound T36]	5.08 ± 1.51	1.25 ± 0.47	5.21 ± 1.17	0.441 ± 0.075	5.08 ± 1.51	5.21 ± 1.17	–	–
CC(=O)N(C)C[C@]12CC[C@@H](C)[C@H](C)[C@H]1[C@H]1C(=O)C=C3[C@@]4(C)C=C(C#N)C(=O)C(C)(C)[C@@H]4CC[C@@]3(C)[C@]1(C)CC2 [Compound T35]	5.57 ± 2	1.66 ± 0.32	5.05 ± 1.1	0.442 ± 0.136	5.57 ± 2	5.05 ± 1.1	–	–
C[C@@H]1[C@H]2[C@H]3C(=O)C=C4[C@@]5(C)C=C(C#N)C(=O)C(C)(C)[C@@H]5CC[C@@]4(C)[C@]3(C)CC[C@@]2(N2CCC2=O)CC[C@H]1C [Compound T74]	21 ± 7.6	5.91 ± 0.94	20 ± 2	1.67 ± 0.13	21 ± 7.6	20 ± 2	–	–
CC1(C)CC[C@]2(N)CC[C@]3(C)[C@H](C(=O)C=C4[C@@]5(C)C=C(C#N)C(=O)C(C)(C)[C@@H]5CC[C@]43C)[C@@H]2C1 [CC16, reference compound]	–	–	–	–	–	–	3.5	27.7
C[C@@H]1[C@H]2[C@H]3C(=O)C=C4[C@@]5(C)C=C(C#N)C(=O)C(C)(C)[C@@H]5CC[C@@]4(C)[C@]3(C)CC[C@@]2(CN2CCNC2=O)CC[C@H]1C [Compound T45]	8.79 ± 2.72	3.22 ± 0.99	6.14 ± 1.47	0.563 ± 0.065	–	–	–	–
C[C@@H]1[C@H]2[C@H]3C(=O)C=C4[C@@]5(C)C=C(C#N)C(=O)C(C)(C)[C@@H]5CC[C@@]4(C)[C@]3(C)CC[C@@]2(CN2CCC2=O)CC[C@H]1C [Compound T14]	2.4 ± 1.2	1.27 ± 0.31	3.91 ± 0.52	0.349 ± 0.018	2.4 ± 1.2	3.91 ± 0.52	–	–
CNC(=O)N(C)C[C@]12CCC(C)(C)C[C@H]1[C@H]1C(=O)C=C3[C@@]4(C)C=C(C#N)C(=O)C(C)(C)[C@@H]4CC[C@@]3(C)[C@]1(C)CC2 [CC36, reference compound]	–	–	–	–	–	–	–	7.23
Cc1cn(C[C@]23CCC(C)(C)C[C@H]2[C@H]2C(=O)C=C4[C@@]5(C)C=C(C#N)C(=O)C(C)(C)[C@@H]5CC[C@@]4(C)[C@]2(C)CC3)nn1 [CC49, reference compound]	–	–	–	–	–	–	–	13.8
CC1(C)CC[C@]2(N3CCCC3=O)CC[C@]3(C)[C@H](C(=O)C=C4[C@@]5(C)C=C(C#N)C(=O)C(C)(C)[C@@H]5CC[C@]43C)[C@@H]2C1 [CC58, reference compound]	–	–	–	–	–	–	–	37.9
CC1(C)CC[C@]2(CN3CCC3)CC[C@]3(C)[C@H](C(=O)C=C4[C@@]5(C)C=C(C#N)C(=O)C(C)(C)[C@@H]5CC[C@]43C)[C@@H]2C1 [CC55, reference compound]	–	–	–	–	–	–	–	22
CC1(C)CC[C@]2(c3nc(C4CC4)no3)CC[C@]3(C)[C@H](C(=O)C=C4[C@@]5(C)C=C(C#N)C(=O)C(C)(C)[C@@H]5CC[C@]43C)[C@@H]2C1 [CC2, reference compound]	–	–	–	–	–	–	–	43.7
